Measured values from US6451807B1, “Methods of treating sexual dysfunction in an individual suffering from a retinal disease, class 1 congestive heart failure, or myocardial infarction using a PDE5 inhibitor” (Lilly Icos, LLC., priority 1999, dated 2002).

Assays:
[1] = system: patients in need thereof (erectile function); test: Two randomized, double-blinded placebo controlled studies, daily and on demand dosing (Example 6); assay type: in vivo, human
Procedure: In two randomized, double-blinded placebo controlled studies, the compound of structural formula (I), at a range of doses in both daily dosing and for on demand therapy for sexual encounters and intercourse in the home setting, was administered to patients in need thereof.
Erectile function was assessed by the International Index of Erectile Function (IIEF) (Rosen et al., Urology, 49, pp. 822-830 (1997)), diaries of sexual attempts, and a global satisfaction question.

Bovine PDE6 = target: T1, Bovine PDE6 (Bos taurus, UniProt P11541+P23439); test: PDE6 enzyme inhibition, IC50 determination; assay type: biochemical
T1 construct: Hypotonic extracts were prepared by suspending isolated ROS; tissue Dr. N. Virmaux, INSERM U338, Strasbourg; host or cells: bovine retina, rod outer segment hypotonic extract
T1 sequence (P11541 2-856 limits assumed): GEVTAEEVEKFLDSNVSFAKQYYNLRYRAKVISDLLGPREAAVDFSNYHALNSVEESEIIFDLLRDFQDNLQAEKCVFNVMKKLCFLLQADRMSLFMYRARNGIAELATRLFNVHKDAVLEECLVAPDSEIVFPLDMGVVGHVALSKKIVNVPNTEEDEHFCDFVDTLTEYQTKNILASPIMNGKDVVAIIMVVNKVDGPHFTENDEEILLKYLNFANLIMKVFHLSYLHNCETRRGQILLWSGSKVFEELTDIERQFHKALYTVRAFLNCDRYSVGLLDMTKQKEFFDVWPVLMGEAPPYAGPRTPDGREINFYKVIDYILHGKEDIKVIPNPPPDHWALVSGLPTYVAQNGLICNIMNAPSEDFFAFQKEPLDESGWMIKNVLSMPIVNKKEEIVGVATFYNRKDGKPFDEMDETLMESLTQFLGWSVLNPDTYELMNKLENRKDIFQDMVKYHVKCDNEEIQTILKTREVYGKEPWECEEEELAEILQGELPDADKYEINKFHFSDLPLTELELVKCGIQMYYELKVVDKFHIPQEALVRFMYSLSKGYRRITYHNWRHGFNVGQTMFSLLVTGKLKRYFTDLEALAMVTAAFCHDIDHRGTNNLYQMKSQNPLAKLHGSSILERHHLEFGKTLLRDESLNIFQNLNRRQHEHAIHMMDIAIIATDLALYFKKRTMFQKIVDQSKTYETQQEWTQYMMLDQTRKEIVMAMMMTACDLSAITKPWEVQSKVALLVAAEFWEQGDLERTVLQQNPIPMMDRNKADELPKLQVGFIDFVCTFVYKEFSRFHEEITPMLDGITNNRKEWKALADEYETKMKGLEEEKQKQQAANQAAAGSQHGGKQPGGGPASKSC
T1 sequence (P23439 2-850 limits assumed): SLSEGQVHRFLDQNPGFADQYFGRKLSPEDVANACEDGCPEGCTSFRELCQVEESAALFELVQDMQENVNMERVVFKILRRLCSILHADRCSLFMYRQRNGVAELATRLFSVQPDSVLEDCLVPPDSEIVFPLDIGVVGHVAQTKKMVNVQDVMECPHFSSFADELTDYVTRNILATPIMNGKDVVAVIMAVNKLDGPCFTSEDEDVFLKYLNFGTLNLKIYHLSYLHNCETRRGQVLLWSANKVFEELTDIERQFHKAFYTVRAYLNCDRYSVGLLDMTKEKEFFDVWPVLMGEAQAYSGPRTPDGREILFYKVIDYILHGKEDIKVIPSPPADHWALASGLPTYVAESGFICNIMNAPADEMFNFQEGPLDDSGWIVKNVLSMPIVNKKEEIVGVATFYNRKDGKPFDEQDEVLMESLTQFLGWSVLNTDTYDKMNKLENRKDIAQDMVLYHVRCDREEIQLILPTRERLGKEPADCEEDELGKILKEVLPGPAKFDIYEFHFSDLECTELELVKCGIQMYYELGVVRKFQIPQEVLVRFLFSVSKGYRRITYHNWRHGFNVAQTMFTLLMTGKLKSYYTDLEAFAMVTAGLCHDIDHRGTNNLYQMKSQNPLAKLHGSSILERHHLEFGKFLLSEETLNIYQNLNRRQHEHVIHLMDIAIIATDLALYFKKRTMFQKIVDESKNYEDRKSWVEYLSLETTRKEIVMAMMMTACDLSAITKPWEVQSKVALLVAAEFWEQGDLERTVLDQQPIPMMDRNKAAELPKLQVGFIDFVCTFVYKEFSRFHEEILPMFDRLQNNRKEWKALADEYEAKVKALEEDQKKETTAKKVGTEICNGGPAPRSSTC
T1 sequence (P04972 1-87 partner): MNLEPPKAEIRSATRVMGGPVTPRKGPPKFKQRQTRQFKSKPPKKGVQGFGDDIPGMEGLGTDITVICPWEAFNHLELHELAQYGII
Procedure: Bovine PDE6 was supplied by Dr. N. Virmaux, INSERM U338, Strasbourg. Bovine retinas were prepared as described by Virmaux et al., FEBS Letters, 12(6), pp. 325-328 (1971) and see also, A. Sitaramayya et al., Exp. Eye Res., 25, pp. 163-169 (1977). Briefly, unless stated otherwise, all operations were done in the cold and in dim red light. Eyes were kept in the cold and in the dark for up to four hours after slaughtering.
Preparation of bovine retinal outer segment (ROS) basically followed procedures described by Schichi et al., J. Biol. Chem., 224:529 (1969). In a typical experiment, 35 bovine retinas were ground in a mortar with 35 mL 0.066 M phosphate buffer, pH 7.0, made up to 40% with sucrose, followed by homogenization in a Potter homogenizer (20 up and down strokes). The suspension was centrifuged at 25,000×g for 20 minutes. The pellet was homogenized in 7.5 mL 0.006 M phosphate buffer (40% in sucrose), and carefully layered under 7.5 mL of phosphate buffer (containing no sucrose). Centrifugation was conducted in a swing-out rotor at 45,000×g for 20 minutes, and produced a pellet which is black at the bottom, and also a red band at the interface 0.066 M. phosphate—40% sucrose/0.066 M phosphate (crude ROS). The red material at the interface was removed, diluted with phosphate buffer, spun down to a pellet, and redistributed in buffered 40% sucrose as described above. This procedure was repeated 2 or 3 times until no pellet was formed. The purified ROS was washed in phosphate buffer and finally spun down to a pellet at 25,000×g for 20 minutes. All materials were then kept frozen until used.
Hypotonic extracts were prepared by suspending isolated ROS in 10 mM Tris-Cl pH 7.5, 1 mM EDTA, and 1 mM dithioerythritol, followed by centrifugation at 100,000×g for 30 minutes.
The preparation was reported to have a specific activity of about 35 nmoles cGMP hydrolyzed per minute per milligram protein.
Biophys. Acta, 384:430 (1975).

In the case of `CN1CC(=O)N2[C@H](c3ccc4c(c3)OCO4)c3[nH]c4ccccc4c3C[C@@H]2C1=O` [Compound 5, (6R-trans)-6-(1,3-benzodioxol-5-yl)-2,3,6,7,12,12a-hexahydro-2-methylpyrazino[1′,2′:1,6]pyrido[3,4-b]indole-1,4-dione], the efficacy ([1]; 10 mg dose) is reported as “fully efficacious”, the side effects ([1]; 10 mg dose) is reported as “minimal side effects (no flushing and no reports of blue vision)” and the efficacy ([1]; doses from 5 to 20 mg) is reported as “efficacious”. The flushing ([1]; doses from 5 to 20 mg) was “no flushing”, the vision abnormalities ([1]; doses from 5 to 20 mg) was “no reports of vision abnormalities” and the “erectile function as assessed by all endpoints (IIEF, diaries of sexual attempts, global satisfaction question)” value ([1]; in vivo) was “significantly improved erectile function”. For the same molecule, the erectile function ([1]; on demand and daily dose regimens, doses between 1 and 20 mg) was “significantly improved erectile function” and the IC50 (Bovine PDE6) was 3.4 µM.
